According to publication PMC10783087 (Microbiology Spectrum, 2023):
Values after ≈ are worked out from the molar mass of the structure shown. Values joined by “and” are separate entries in the source; they are usually repeats but may differ in a detail not shown here. Equal values may be shown once. Read-outs that look alike come from different tables or passages of the source.

How the values were obtained:
[1] = system: M. avium ATC 700891 (MAC 101); test: In vitro MIC against NTM, microbroth dilution; type: cell-based; conditions: 7 days; for MIC: Mycobacterium avium, 168 h
M. abscessus ATCC 19977 = test: In vitro MIC against NTM, microbroth dilution; type: cell-based; conditions: 7 days
[2] = system: M. avium ATC 700891 (MAC 101) in THP-1 cells; test: Ex vivo (intra-macrophage) activity in infected THP-1 cells, resazurin; type: cell-based
Experimental: (§1) THP-1 cells were infected with either M. avium or M. abscessus at an MOI of 10 for 4 h prior to treatment. Following infection, cells were washed twice with PBS to remove non-phagocytosed bacteria. Fresh medium was then added, and cells were treated with concentrations ranging from 64 to 0.24 µg/mL and incubated for 24 h at 37°C with 5% CO2. Following 24 h of treatment, cells were treated with resazurin (0.04 mg/mL) and incubated for an additional 3–5 days. Absorbance was measured for each well at 570 and 600 nm. The percent growth reduction was calculated relative to treated and untreated controls.

[3] = system: M. abscessus ATCC 19977 in THP-1 cells; test: as above; type: cell-based
Experimental: as §1

in vitro [4] = conditions: mouse
Mtb [5] = test: microbe, parasite or virus in culture; type: cell-based, Mycobacterium tuberculosis; conditions: for EC50: read-out: In vitro EC50; for EC90: read-out: In vitro EC90
physchem = type: physicochemical; conditions: kinetic from dmso stock
Experimental: The kinetic solubility assay was conducted as previously described ([18]). Briefly, using methods described by Bevan and Lloyd ([56]), the assay was performed with 7-point (twofold) dilutions of the compounds, from 200 to 3.125 μM along with mebendazole, bexarotene, and aspirin as controls. The drug dilutions were added to PBS, pH 7.4, with a DMSO concentration of 1% (final), and incubated at 37°C for 2 h. The absorbance at 620 nm was measured for each drug dilution to estimate the solubility of the compound in triplicate/ dilution.

[6] = type: in vitro ADME, mouse
Experimental: The mouse microsomal stability assay was conducted as described by Obach ([57]), and the results are presented as the percentages remaining after 30 min. Values greater than 100% are likely due to changes in the solubility of the compounds over the course of the assay and represent high stability in microsomes.

[7] = system: Mtb CDC1551 FFluc reporter strain in primary bone marrow-derived macrophages; test: microbe, parasite or virus in culture; type: cell-based; conditions: Mycobacterium tuberculosis, Macrophage; for EC90: read-out: ex vivo EC90
[8] = system: primary bone marrow-derived macrophages (BMMΦ); conditions: for S.I. (CC50 / EC50): BMMΦ CC50 / ex vivo EC50, Table S1; for Si (CC50/EC50): macrophage CC50 / in vitro Mtb EC50
[9] = type: in vivo, female C57Bl/6 mice; conditions: 200 mg/kg oral in corn oil
Experimental: Female C57Bl/6 mice were dosed with 200 mg/kg (based on the average body mass of 27 mice) of MSU-43085, MSU-43165, or MSU-43170 formulated in corn oil by oral gavage. At 1-, 2-, and 4-h post treatment, blood samples were taken from three mice from each treatment group by cardiac puncture and placed in BD Lithium HeparinN Vacutainer tubes. Plasma was separated from whole blood by centrifuge, and compounds were methanol extracted. Lungs were harvested from mice 4- h post treatment. Lung samples were homogenized using a closed tissue grinder system (Fisherbrand—02-542-09), and compounds were methanol extracted from lung homogenates. Methanol-extracted samples were quantified by UPLC/MS/MS.

Mtb [10] = conditions: cited from earlier work
Erdman = test: microbe, parasite or virus in culture; type: cell-based; conditions: Mycobacterium tuberculosis
MAB = conditions: at 20 µM; cited from earlier work
[11] = system: primary bone marrow-derived macrophages (BMMΦ); conditions: earlier report; cited from earlier work
Mtb [12] = conditions: earlier report; read-out: EC50 against Mtb in vitro; cited from earlier work
[13] = system: Mtb CDC1551 FFluc reporter strain in primary bone marrow-derived macrophages; set-up: method as in PMID 31405862; conditions: earlier report; read-out: EC50 against intracellular Mtb; cited from earlier work
H37Rv (ΔkatG) = type: cell-based
in vitro [14] = type: cell-based; conditions: human, 24 h treatment
Experimental: For additional cell lines including HepG2, HeLa, and THP-1, the following protocol was used. HepG2 (ATCC HB-8065) and HeLa (ATCC CCL-2) were cultured in cEMEM supplemented with 10% (vol/vol)/FBS and 1%(vol/vol) PenStrep. THP-1 cells were cultured in cRPMI-1640 medium (ATCC 30-2001) supplanted with 10% (vol/vol) FBS and 0.05 mM 2-mercaptoethanol (Sigma M3148). THP-1 cells were seeded in 96 well plates at 1 × 10^5 cells/mL with complete medium. HepG2 and HeLa cells were seeded in 96 well plates with cEMEM at 1 × 10^6 cells/mL. Cells were treated with compounds by dose response in a range of 128–0.48 µg/mL in triplicate or mitomycin C at a range of 128–0.0625 µM. Cells were treated for 24 h at 37°C with 5% CO2. Cells were then treated with either MTT or resazurin for 4 h. Absorbance was then measured at 570 nm for MTT plates. Percent cytotoxicity was calculated relative to positive mitomycin C and untreated controls. Percent cytotoxicity was used to calculate the IC50 using Graphpad prism software using non-linear regression analysis.

H37Rv = test: microbe, parasite or virus in culture; type: cell-based; conditions: Mycobacterium tuberculosis
Mtb Erdman = type: in vivo, Mycobacterium tuberculosis; conditions: for median lung bacterial burden: C57Bl/6 mice, oral gavage 2 weeks; for median lung bacterial burden / colonies in spleens (dissemination): INH 25 mg/kg, MSU compounds 200 mg/kg
[15] = Mycobacteroides abscessus, ATCC19977, 168 h
[16] = Mycobacterium tuberculosis, 144 h
[17] = 37 °C, aqueous buffer, PBS pH 7.4, read-out: Kinetic solubility pH 7.4
[18] = aqueous buffer, PBS pH 2.0, read-out: Kinetic solubility pH 2.0
[19] = Table S5, % remaining after 30 minutes with mouse microsomes
[20] = mouse microsomes, % remaining after 30 min
[21] = intracellular Mtb in BMMΦ, Table S1
[22] = read-out: intra-macrophage EC50
[23] = 37 °C, pH 2, aqueous buffer, Table S5, read-out: Kinetic solubility at pH 2.0
[24] = 37 °C, pH 7.4, aqueous buffer, Table S5, read-out: Kinetic solubility at pH 7.4
[25] = read-out: HeLa Cytotoxicity (IC50)
[26] = read-out: HepG2 Cytotoxicity (IC50)
[27] = read-out: THP-1 Cytotoxicity (IC50)
[28] = intracellular Mtb in BMMΦ, Table S1, read-out: ex vivo EC50

## CO[C@H]1/C=C/O[C@@]2(C)Oc3c(C)c(O)c4c(O)c(c(/C=N/N5CCN(C)CC5)c(O)c4c3C2=O)NC(=O)/C(C)=C\C=C\[C@H](C)[C@H](O)[C@@H](C)[C@@H](O)[C@@H](C)[C@H](OC(C)=O)[C@@H]1C [Rifampicin]
[1]
  MIC: 0.07 µM (≈ 0.0576 µg/mL)

## CC[C@H]1OC(=O)[C@H](C)[C@@H](O[C@H]2C[C@@](C)(OC)[C@@H](O)[C@H](C)O2)[C@H](C)[C@@H](O[C@@H]2O[C@H](C)C[C@H](N(C)C)[C@H]2O)[C@](C)(OC)C[C@@H](C)C(=O)[C@H](C)[C@@H](O)[C@]1(C)O [Clarithromycin]
[1]
  MIC: 0.08 µM (≈ 0.0598 µg/mL)
M. abscessus ATCC 19977; [15]
  MIC: 1.4 µM (≈ 1.05 µg/mL)
[2]
  Ex vivo (>90% inhibition), M. avium ATC 700891 (MAC 101): 171 µM
[3]
  Ex vivo (>90% inhibition), M. abscessus ATCC 19977: 86 µM

## CC(C)N(C(=O)COc1nc2cc(Cl)c(Cl)cc2[nH]1)C(C)C [MSU-43170]
In vitro [4]
  CC50: > 80000 nM
Mtb [5]; [16]
  EC50: 116 nM
  EC90: 263 nM
Mtb [5]
  EC50: 120 nM
  EC90: 260 nM
physchem; [17]
  solubility kinetic: > 50 µM
physchem; [18]
  solubility kinetic: > 300 µM
[6]; [19]
  Microsome Stability: 95%
[6]; [20]
  Microsome Stability: 95%
[7]; [21]
  EC90: 140 nM
[7]; [22]
  EC50: 35 nM
[8]
  S.I. (CC50 / EC50): > 2285
  Si (CC50/EC50): >667
[9]; 2 h time point (1 h unavailable)
  Blood plasma concentration (2 h, fold EC50): 4 fold EC50 and 4× ^ a fold EC50

## CC1(C)CCC(NC(=O)c2cc3c(F)cc(F)cc3[nH]2)CC1 [NITD-349]
Mtb [10]
  MIC: 0.03 µM (≈ 0.00919 µg/mL)

## COc1nc2ccc(Br)cc2cc1[C@@H](c1ccccc1)[C@@](O)(CCN(C)C)c1cccc2ccccc12 [Bedaquiline]
Erdman
  EC50: 220 nM

## CC(C)N(C(=O)CSc1nc2ccc(Cl)cc2[nH]1)C(C)C [HC2099]
MAB
  inhibition of MAB growth in vitro: 96.5%
[11]
  cytotoxicity in macrophages: no detectable cytotoxicity
In vitro [4]
  CC50: > 80000 nM
Mtb [5]; [16]
  EC50: 5900 nM
  EC90: 13700 nM
physchem; [23]
  solubility kinetic: > 300 µM
physchem; [24]
  solubility kinetic: 178 µM (≈ 58 µg/mL)
Mtb [12]
  EC50: 1700 nM
[6]; [19]
  Microsome Stability: 71%
[13]
  EC50: < 300 nM
[8]
  Si (CC50/EC50): >13

## Cc1cc2nc(SCC(=O)N(C(C)C)C(C)C)[nH]c2cc1C [MSU-42766]
H37Rv (ΔkatG)
  MIC, H37Rv (ΔkatG): 1.5 µM (≈ 0.479 µg/mL)
In vitro [4]
  CC50: > 80000 nM
[1]
  In vitro MIC, M. avium ATC 700891 (MAC 101): no detectable activity
  MIC: > 200 µM
Erdman
  EC50: 1300 nM
Mtb [5]; [16]
  EC50: 1300 nM
  EC90: 8200 nM
In vitro [14]; [25]
  IC50: > 128 µg/mL
In vitro [14]; [26]
  IC50: > 128 µg/mL
In vitro [14]; [27]
  IC50: 39.6 µg/mL (≈ 124 µM)
[7]; [28]
  EC50: 410 nM
[7]; [21]
  EC90: 970 nM
M. abscessus ATCC 19977
  MIC: 12 µM (≈ 3.83 µg/mL)
M. abscessus ATCC 19977; [15]
  MIC: 12 µM (≈ 3.83 µg/mL)
H37Rv; read-out: MIC, H37Rv
  MIC: 1.5 µM
H37Rv; read-out: activity (MIC) against WT
  MIC: 0.5 µg/mL
[8]
  S.I. (CC50 / EC50): > 195.6
  Si (CC50/EC50): >61

## Cc1ccc2nc(SCC(=O)N(C(C)C)C(C)C)[nH]c2c1 [HC2183]
[11]
  cytotoxicity in macrophages: no detectable cytotoxicity
In vitro [4]
  CC50: > 80000 nM
Mtb [5]; [16]
  EC50: 7300 nM
  EC90: 16000 nM
physchem; [23]
  solubility kinetic: > 300 µM
physchem; [24]
  solubility kinetic: > 200 µM
Mtb [12]
  EC50: 3200 nM
[6]; [19]
  Microsome Stability: 25%
[13]
  EC50: 3000 nM
[8]
  Si (CC50/EC50): >11

## CC1(C)CCC(NC(=O)c2cc3c(Cl)cc(Cl)cc3[nH]2)CC1 [NITD-304]
Mtb [10]
  MIC: 0.02 µM (≈ 0.00679 µg/mL)

## NNC(=O)c1ccncc1 [Isoniazid]
H37Rv (ΔkatG)
  MIC, H37Rv (ΔkatG): >14.5 µM
Mtb Erdman
  median lung bacterial burden: no colonies were isolated
  colonies in spleens (dissemination): no colonies were isolated
H37Rv; read-out: MIC, H37Rv
  MIC: 0.2 µM

## NCC[C@H](O)C(=O)N[C@@H]1C[C@H](N)[C@@H](O[C@H]2O[C@H](CN)[C@@H](O)[C@H](O)[C@H]2O)[C@H](O)[C@H]1O[C@H]1O[C@H](CO)[C@@H](O)[C@H](N)[C@H]1O [Amikacin]
M. abscessus ATCC 19977
  MIC: 6.8 µM (≈ 3.98 µg/mL)
M. abscessus ATCC 19977; [15]
  MIC: 6.8 µM (≈ 3.98 µg/mL)

## CC(C)N(C(=O)CNc1nc2cc(Cl)c(Cl)cc2[nH]1)C(C)C [MSU-43165]
In vitro [4]
  CC50: > 80000 nM
Mtb [5]; [16]
  EC50: 380 nM
  EC90: 628 nM
Mtb [5]
  EC90: 630 nM
physchem; [17]
  solubility kinetic: > 150 µM
physchem; [18]
  solubility kinetic: > 300 µM
[6]; [19]
  Microsome Stability: 106%
[6]; [20]
  Microsome Stability: 106%
[7]; [28]
  EC50: 130 nM
[7]; [21]
  EC90: 150 nM
[7]; [22]
  EC50: 134 nM
Mtb Erdman; 200 mg/kg oral, 2 weeks, not significant (P > 0.99)
  absolute difference of the median lung burden vs vehicle control: 1.6 × 10^4 CFUs/mL
Mtb Erdman
  median lung bacterial burden: 5.7 × 10^3 CFUs/mL
  colonies in spleens (dissemination): colonies could also be detected
[8]
  S.I. (CC50 / EC50): > 596.6
  Si (CC50/EC50): >210
[9]; 1 h
  Blood plasma concentration (1 h, fold EC50): 1.3 fold EC50 and 1.3× fold EC50

## CC(C)/N=c1\cc2n(-c3ccc(Cl)cc3)c3ccccc3nc-2cc1Nc1ccc(Cl)cc1 [Clofazimine]
Erdman
  EC50: 300 nM

## CO[C@@]12[C@H](COC(N)=O)C3=C(C(=O)C(C)=C(N)C3=O)N1C[C@@H]1N[C@@H]12 [Mitomycin C, reference compound]
In vitro [14]; [25]
  IC50: 10.5 µg/mL (≈ 31.5 µM)
In vitro [14]; [26]
  IC50: 23 µg/mL (≈ 68.8 µM)
In vitro [14]; [27]
  IC50: 3.09 µg/mL (≈ 9.25 µM)

## COc1c(N2C[C@@H]3CCCN[C@@H]3C2)c(F)cc2c(=O)c(C(=O)O)cn(C3CC3)c12 [Moxifloxacin]
H37Rv (ΔkatG)
  MIC, H37Rv (ΔkatG): 0.15 µM (≈ 0.0602 µg/mL)
H37Rv; read-out: MIC, H37Rv
  MIC: 0.15 µM
